Assay results taken from ChEMBL document CHEMBL1201862, “PubChem BioAssay data set” (2004).
One block for each molecule: values may come before it. The source made the active and inactive calls.

Columns and labels:
[1] = target: 26S proteasome non-ATPase regulatory subunit 14 (Homo sapiens, UniProt O00487); experiment: inhibition of proteasome subunit RPN11 – biochemical, fluorescence polarization, uHTS hits, confirmation (AID 602368); type: functional
[2] = target: T1, Alkaline phosphatase, tissue-nonspecific isozyme (Homo sapiens, UniProt P05186); experiment: activation of tissue-nonspecific alkaline phosphatase – biochemical, TNAP isozyme, mouse IAP uHTS hits, selectivity assay for mouse IAP activator project, dose response (AID 488880); type: functional
T1 sequence (P05186 whole entry): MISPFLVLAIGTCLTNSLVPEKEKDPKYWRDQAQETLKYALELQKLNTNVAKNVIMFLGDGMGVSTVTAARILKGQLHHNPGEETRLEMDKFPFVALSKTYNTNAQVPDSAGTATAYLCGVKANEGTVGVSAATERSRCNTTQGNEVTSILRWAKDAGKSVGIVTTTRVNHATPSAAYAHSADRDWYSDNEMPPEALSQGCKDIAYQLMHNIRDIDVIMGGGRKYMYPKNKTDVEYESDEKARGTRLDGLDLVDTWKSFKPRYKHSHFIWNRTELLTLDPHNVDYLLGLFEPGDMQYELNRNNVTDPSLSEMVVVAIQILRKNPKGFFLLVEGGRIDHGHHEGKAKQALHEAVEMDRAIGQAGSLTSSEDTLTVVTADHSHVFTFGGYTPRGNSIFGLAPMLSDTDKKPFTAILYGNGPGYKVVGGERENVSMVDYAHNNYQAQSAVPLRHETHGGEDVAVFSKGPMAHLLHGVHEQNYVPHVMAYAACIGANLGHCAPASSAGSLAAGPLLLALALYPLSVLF

[3] = target: 72 kDa type IV collagenase (Homo sapiens, UniProt P08253); experiment: Dose Response validation of uHTS RPN11 inhibitor hits using a MMP-2 Fluorescence assay.; type: functional
[4] = target: Genome polyprotein (dengue virus type 2, UniProt P29990); experiment: flavivirus cap methylation enzyme inhibition – biochemical, confirmation dose response, primary screen (AID 588689); type: functional
[5] = tested on: Vero; experiment: viability of Vero cells under compound – cytotoxicity control for flavivirus capping enzyme inhibitors (AID 588742); type: functional; details: Chlorocebus sabaeus
[6] = target: Large T antigen (Simian virus 40, UniProt P03070); type: functional, Betapolyomavirus macacae;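 further: Confirmatory-stage PubChem screen for compounds that inhibit SV40 T antigen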
[7] = target: ORF 73 (Human herpesvirus 8, UniProt O40947); experiment: KSHV LANA DNA-binding disruption – biochemical, fluorescence polarization, cherry-picked samples, dose response (AID 504725); design: species or system Human gammaherpesvirus 8;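 further: fluorescence polarization of a labeled DNA duplex reporting LANA DNA binding; potency is for inhibitors that block LANA binding to the DNA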
[8] = target: Prothrombin (Bos taurus, UniProt P00735); experiment: thrombin protease inhibitors – biochemical, fluorescence polarization, uHTS hits, dose response (AID 602369); type: functional
[9] = target: T2, Cysteine protease ATG4B (Homo sapiens, UniProt Q9Y4P1); type: functional;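 further: Fluorescence-based dose-response confirmation assay measuring inhibition of ATG4B activity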
T2 sequence (Q9Y4P1 whole entry): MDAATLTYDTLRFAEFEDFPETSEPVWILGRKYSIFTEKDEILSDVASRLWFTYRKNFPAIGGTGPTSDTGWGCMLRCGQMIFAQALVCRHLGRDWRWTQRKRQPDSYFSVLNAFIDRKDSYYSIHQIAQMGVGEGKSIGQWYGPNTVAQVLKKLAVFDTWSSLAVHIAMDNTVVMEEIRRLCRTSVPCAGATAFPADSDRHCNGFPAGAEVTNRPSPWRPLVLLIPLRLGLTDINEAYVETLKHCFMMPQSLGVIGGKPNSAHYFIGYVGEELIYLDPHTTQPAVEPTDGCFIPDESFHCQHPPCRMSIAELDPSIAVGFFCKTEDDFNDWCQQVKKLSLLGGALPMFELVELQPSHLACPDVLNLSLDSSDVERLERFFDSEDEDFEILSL

[10] = target: Intestinal-type alkaline phosphatase (Homo sapiens, UniProt P09923); experiment: activation of human intestinal alkaline phosphatase – biochemical, dose response (AID 488873); type: functional
[11] = target: Phospholipase A2 (Homo sapiens, UniProt P04054); type: functional;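 further: confirmatory dose-response counterscreen on phospholipase A2, testing hits that came from an ultra-high-throughput screen for ATG4B inhibitors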
[12] = target: Intestinal-type alkaline phosphatase (Mus musculus, UniProt P24822); experiment: mouse intestinal alkaline phosphatase activators, dose response, biochemical, luminescence, uHTS hits (AID 488783); type: functional
[13] = target: T3, Fatty acid synthase (Homo sapiens, UniProt P49327); experiment: inhibition of human FAS-TE enzyme activity – biochemical, endpoint fluorescence intensity, uHTS hits, dose response (AID 624327); type: functional;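 further: fluorescence from hydrolysis of an O-methyl fluorescein acyl ester substrate by the enzyme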
[14] = target: T3, Fatty acid synthase; experiment: inhibition of human FAS-TE enzyme activity – biochemical, kinetic fluorescence intensity, dose response (AID 624326); type: functional;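 further: rate of fluorescence rise from hydrolysis of a fluorogenic O-methyl fluorescein ester substrate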
[15] = target: Cytochrome P450 2D6 (Homo sapiens, UniProt P10635);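 further: CYP2D6 member of a cytochrome P450 panel assay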
[16] = NIH-3T3 fibroblast cytotoxicity, dose response, cytotoxicity control, cell-based, fluorescence, Alamar Blue, secondary assay (AID 2327); type: functional;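 further: NIH-3T3 mouse fibroblasts cultured with fluconazole at 8 µg/mL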
[17] = fluconazole-exposed Candida albicans growth modulators – fluorescence, retest, confirmation (AID 2467); type: functional, cell-based
[18] = target: Lysine-specific demethylase 4C (Homo sapiens, UniProt Q9H3R0); experiment: inhibition of JMJD2C H3K9me3 demethylation – biochemical, DELFIA europium, cherry-picked samples, dose response (AID 488835); type: functional
[19] = target: G-protein coupled receptor 55 (Homo sapiens, UniProt Q9Y2T6); experiment: blockers of GPR55 signalling, imaged – imaging, image-based, counter-screen for GPR35 antagonist project, SAR follow-up (AID 2397); type: functional
Chain of G-protein coupled receptor 55 (Q9Y2T6 whole entry): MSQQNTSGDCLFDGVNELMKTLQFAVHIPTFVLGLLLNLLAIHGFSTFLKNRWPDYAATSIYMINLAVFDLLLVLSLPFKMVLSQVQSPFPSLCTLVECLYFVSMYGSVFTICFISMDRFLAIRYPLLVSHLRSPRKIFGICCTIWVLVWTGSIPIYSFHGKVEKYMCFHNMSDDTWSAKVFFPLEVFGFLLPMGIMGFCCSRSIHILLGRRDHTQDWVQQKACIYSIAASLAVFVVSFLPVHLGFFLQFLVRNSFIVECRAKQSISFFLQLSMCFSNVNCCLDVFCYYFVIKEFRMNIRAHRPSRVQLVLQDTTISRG

T3 sequence (P49327 whole entry): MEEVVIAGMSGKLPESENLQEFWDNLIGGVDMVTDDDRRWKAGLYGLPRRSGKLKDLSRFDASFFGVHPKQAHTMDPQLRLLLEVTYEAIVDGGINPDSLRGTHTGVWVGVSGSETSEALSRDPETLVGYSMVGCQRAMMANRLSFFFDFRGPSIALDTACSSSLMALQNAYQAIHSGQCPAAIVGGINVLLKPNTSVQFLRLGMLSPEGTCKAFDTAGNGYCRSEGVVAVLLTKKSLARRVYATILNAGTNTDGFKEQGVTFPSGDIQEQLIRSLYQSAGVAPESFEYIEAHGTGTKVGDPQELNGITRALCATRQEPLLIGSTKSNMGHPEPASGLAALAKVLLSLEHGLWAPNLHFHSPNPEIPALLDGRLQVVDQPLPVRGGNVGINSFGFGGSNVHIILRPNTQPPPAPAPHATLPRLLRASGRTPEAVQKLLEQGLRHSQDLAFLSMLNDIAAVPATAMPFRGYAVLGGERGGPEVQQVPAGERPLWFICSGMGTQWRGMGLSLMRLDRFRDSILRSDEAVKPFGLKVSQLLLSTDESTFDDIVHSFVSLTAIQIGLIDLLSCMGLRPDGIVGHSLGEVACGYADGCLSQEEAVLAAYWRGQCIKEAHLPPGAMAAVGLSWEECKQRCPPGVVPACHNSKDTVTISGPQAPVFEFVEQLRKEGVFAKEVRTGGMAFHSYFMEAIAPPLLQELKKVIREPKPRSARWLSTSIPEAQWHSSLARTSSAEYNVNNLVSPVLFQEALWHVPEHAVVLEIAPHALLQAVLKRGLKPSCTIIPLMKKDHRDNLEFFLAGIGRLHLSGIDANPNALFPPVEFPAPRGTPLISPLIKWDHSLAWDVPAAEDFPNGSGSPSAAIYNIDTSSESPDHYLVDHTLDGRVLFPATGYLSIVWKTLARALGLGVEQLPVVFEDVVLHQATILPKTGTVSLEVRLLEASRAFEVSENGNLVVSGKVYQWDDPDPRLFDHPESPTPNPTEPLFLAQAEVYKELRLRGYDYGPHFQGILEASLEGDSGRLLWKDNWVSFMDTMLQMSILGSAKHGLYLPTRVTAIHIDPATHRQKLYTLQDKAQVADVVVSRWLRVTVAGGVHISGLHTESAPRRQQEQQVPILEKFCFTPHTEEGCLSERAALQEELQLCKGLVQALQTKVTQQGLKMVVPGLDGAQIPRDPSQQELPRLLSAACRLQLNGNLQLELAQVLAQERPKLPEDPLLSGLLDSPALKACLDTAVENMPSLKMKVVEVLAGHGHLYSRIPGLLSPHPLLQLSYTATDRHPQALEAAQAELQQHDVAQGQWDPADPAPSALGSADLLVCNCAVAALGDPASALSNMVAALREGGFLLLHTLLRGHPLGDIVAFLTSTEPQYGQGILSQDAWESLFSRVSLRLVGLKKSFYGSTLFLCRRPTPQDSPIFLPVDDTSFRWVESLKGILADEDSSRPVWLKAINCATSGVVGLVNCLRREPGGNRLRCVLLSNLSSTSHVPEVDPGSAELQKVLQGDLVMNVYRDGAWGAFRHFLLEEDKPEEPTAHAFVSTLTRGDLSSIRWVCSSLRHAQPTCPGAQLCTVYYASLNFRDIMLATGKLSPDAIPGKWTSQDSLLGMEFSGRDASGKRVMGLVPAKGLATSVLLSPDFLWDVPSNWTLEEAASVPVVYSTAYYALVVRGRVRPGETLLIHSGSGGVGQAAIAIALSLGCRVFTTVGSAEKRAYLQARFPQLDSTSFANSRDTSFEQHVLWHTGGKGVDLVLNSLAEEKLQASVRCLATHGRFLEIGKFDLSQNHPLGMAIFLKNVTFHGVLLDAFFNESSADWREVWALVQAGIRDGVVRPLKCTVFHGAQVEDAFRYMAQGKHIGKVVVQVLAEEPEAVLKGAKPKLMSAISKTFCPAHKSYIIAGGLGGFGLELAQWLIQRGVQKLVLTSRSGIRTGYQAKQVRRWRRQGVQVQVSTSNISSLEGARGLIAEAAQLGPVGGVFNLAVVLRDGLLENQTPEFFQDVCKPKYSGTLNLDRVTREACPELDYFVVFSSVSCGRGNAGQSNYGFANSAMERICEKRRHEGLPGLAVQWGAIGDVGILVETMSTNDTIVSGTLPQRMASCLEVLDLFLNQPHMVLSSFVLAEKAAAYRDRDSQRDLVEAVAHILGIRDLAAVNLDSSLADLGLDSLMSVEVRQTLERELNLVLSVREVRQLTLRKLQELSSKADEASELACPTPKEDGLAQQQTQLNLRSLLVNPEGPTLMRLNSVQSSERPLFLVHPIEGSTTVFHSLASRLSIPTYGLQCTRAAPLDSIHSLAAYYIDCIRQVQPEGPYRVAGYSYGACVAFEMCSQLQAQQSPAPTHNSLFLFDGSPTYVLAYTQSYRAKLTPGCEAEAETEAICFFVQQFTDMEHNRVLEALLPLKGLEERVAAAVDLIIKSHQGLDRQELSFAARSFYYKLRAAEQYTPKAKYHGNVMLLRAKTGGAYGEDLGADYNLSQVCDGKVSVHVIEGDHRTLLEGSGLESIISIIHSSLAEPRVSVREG
Chain of Large T antigen (P03070 whole entry): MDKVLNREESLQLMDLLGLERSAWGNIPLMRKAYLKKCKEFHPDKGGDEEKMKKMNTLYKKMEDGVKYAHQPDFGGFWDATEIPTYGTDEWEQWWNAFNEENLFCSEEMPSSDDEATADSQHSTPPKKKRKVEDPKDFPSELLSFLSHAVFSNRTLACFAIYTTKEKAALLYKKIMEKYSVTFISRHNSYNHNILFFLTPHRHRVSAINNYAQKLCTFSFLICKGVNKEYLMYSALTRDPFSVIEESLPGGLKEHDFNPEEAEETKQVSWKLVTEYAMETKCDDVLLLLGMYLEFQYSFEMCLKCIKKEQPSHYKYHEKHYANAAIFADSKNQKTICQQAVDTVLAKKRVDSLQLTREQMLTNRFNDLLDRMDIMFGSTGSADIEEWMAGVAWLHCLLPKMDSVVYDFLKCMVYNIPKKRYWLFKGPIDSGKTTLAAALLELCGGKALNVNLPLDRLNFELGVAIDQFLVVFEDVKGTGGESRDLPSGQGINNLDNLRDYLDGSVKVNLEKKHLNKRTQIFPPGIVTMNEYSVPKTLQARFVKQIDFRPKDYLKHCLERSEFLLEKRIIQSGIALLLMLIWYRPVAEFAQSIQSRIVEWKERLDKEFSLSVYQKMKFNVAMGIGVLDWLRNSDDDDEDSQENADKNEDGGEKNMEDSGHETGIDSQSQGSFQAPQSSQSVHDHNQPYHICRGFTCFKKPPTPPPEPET
Chain of Intestinal-type alkaline phosphatase (Mus musculus, UniProt P24822) (P24822 whole entry): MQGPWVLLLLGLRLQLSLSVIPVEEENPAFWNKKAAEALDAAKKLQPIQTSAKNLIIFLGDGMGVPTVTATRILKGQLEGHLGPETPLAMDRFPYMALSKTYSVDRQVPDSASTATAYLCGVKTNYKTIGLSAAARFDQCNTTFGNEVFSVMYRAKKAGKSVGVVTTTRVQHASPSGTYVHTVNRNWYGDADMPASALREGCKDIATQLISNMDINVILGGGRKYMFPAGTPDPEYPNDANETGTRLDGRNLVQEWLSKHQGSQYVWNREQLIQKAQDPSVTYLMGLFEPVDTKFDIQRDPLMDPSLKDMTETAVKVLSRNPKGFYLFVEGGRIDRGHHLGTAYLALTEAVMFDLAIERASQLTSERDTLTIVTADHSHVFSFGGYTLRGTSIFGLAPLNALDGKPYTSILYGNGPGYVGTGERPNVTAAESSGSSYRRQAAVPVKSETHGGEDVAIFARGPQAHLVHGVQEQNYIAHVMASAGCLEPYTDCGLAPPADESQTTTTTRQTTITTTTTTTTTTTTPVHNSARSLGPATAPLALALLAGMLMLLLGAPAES
Chain of Intestinal-type alkaline phosphatase (Homo sapiens, UniProt P09923) (P09923 whole entry): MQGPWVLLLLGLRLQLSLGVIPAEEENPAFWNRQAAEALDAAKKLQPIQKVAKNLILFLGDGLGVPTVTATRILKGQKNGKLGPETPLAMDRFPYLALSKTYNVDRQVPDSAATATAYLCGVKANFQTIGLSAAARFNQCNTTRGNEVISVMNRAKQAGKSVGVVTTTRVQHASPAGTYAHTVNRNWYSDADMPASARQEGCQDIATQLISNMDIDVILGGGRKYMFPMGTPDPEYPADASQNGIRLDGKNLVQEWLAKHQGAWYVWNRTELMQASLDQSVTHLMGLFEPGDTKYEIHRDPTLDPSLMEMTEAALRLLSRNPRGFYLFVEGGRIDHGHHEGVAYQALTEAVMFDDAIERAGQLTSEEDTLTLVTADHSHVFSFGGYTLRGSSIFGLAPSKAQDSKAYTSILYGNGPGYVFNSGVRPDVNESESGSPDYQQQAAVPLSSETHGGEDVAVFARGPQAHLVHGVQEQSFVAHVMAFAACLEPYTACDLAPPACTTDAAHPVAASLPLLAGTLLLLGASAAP
Chain of 26S proteasome non-ATPase regulatory subunit 14 (O00487 whole entry): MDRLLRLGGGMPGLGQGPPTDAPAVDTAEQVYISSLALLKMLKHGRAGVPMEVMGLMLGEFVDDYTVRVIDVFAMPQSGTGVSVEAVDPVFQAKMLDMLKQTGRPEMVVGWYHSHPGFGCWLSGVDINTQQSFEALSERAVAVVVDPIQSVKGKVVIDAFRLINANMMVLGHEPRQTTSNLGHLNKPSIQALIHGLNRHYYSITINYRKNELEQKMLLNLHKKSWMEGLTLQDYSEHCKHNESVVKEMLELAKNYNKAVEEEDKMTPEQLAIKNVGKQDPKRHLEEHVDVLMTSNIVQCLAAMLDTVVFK

IC50 [1]: 14.6 µM (active)
EC50 [2]: 62.2 µM (active)
IC50 [3]: 0.968 µM (active)
IC50 [4]: 79.4 µM (active)
IC50 [6]: 47.9 µM (active)
AC50 [7]: 66.3 µM (active)
IC50 [8]: 98.5 µM (active)
IC50 [9]: 11 µM (active)
EC50 [10]: 50.8 µM (active)
IC50 [11]: 26.6 µM (inactive)
EC50 [12]: 51.2 µM (active)
SMILES: CC(C(=O)Nc1ccc(C(=O)O)c(O)c1)N1C(=O)/C(=C\c2ccco2)SC1=S (centres undefined)
CC50 [5]: > 40 µM (active)

SMILES: CC(C)(C)c1ccc(OC(=O)Nc2ccc(O)c(C(=O)O)c2)cc1
IC50 [13]: 9.66 µM (active)
IC50 [14]: 11.7 µM (active)
AC50 [15]: inconclusive

SMILES: FC(F)(F)c1ccccc1N=C(S)NN=C1CCCCCC1
EC50 [16]: 54 µM (active)
EC50 [17]: > 38 µM (not active)
AC50 [18]: 6.8 µM (active)

IC50 [19]: 4.95 µM (active)
SMILES: Cc1c(C(=O)Nc2ccc3c(c2)OCCO3)sc2ncnc(N3CCCCC3C)c12 (centres undefined)
